Assay results reported in PMC5302928, “[^64Cu]XYIMSR-06: A dual-motif CAIX ligand for PET imaging of clear cell renal cell carcinoma” (Oncotarget, 2016).
“And” between values parts separate entries of the source, which are not always exact repeats. Equal values may be shown once.

Legend:
[1] = In vivo metabolism study, plasma radio-TLC; set-up: species or system NSG mice; details: for Percentage of intact radiotracer in plasma: 7.4 MBq i.v.
Experimental: PET acquisition times were: 5 min/bed (1 h) post-injection were developed using a mobile phase consisting of 45% of [Al18F]XYIMSR-04. PET images were co-registered acetonitrile, 55% water and 0.1% trifluoroacetic acid. The with the corresponding 360-slice CT images. Imaging TLC plate was dried and exposed to Kodak Biomax x-ray datasets were reconstructed using the 3D-FORE/2D-OSEM film (Fisher Scientific). Standard solutions had Rf value of iterative algorithm with 2 iterations and 16 subsets, using 0.6. The intensity of bans on the film were calculated with the manufacturer ’s software. Display of images utilized the Image J software (NIH, Bethesda, MD). The percentages Amide software (Dice Holdings, Inc. NY). The 1 h image of intact [64Cu]XYIMSR-06 in plasma were 86.2%, 98.3, is shown below (Supplementary Figure S2): and 100% for 0.5h, 1h, and 2h plasma samples, respectively.
Metabolism study REFERENCES
In vivo metabolism of [64Cu]XYIMSR-06 in NSG 1. Wichert M, Krall N, Decurtins W, Franzini RM, Pretto mice intravenously (tail vein) with 7.4 MBq (200 μCi) F, Schneider P, Neri D, Scheuermann J. Dual-display of [64Cu]XYIMSR-06 in 200 µL of PBS (pH = 7.0). One of small molecules enables the discovery of ligand pairs mouse was euthanized at 0.5, 1, and 2hr time points and facilitates affinity maturation. Nature chemistry. plasma was prepared by centrifugation of whole blood 2015;7:241-9. for 15 minutes at 2,500xg at 4°C. 5 uL of the plasma 2. D’Souza CA, McBride WJ, Sharkey RM, Todaro LJ, samples and control (7.4 kBq of [64Cu]XYIMSR-06) were Goldenberg DM. High-yielding aqueous 18F-labeling of spotted onto silica gel 60 RP-18 F254S glass TLC plates peptides via Al18F chelation. Bioconjugate chemistry.
(EMD Millipore Corp., Billerica, MA) and the plates 2011;22:1793-803. […]

[2] = system: CAIX-expressing SK-RC-52 ccRCC tumor xenografts; test: Biodistribution of [^64Cu]XYIMSR-06 in mice bearing SK-RC-52 xenografts; format: in vivo
Experimental: Animal experiments were performed in accordance with protocols approved by the Johns Hopkins Animal Care and Use Committee (ACUC). Six-week-old female NOD/SCID mice were purchased from the Animal Resource Core of the Sidney Kimmel Comprehensive Cancer Center of Johns Hopkins and were subcutaneously injected in the upper right flank with 1 × 10^6 SK-RC-52 cells in RPMI 1640 GlutaMAX™ media (Life Technologies, Frederick, MD) supplemented with 1% fetal bovine serum (FBS). Mice were monitored for tumor size and used for PET/CT imaging when the size of the tumor reached 100 mm^3.
Mice bearing SK-RC-52 xenografts within the upper right flank were injected intravenously with 740 kBq (20 μCi) of [^64Cu]XYIMSR-06 in 200 μL of PBS. For in vivo competition (binding specificity) studies, tumor-bearing mice were injected with 740 kBq (20 μCi) of [^64Cu]XYIMSR-06 and 200 nmole of 1 in 200 μL of PBS concurrently. At specific times after injection (1 h, 4 h, 8 h and 24 h), mice (n = 5) were sacrificed by cervical dislocation with blood immediately collected by cardiac puncture. Heart, lungs, pancreas, spleen, fat, brain, muscle, small intestines, liver, stomach, kidney, urinary bladder, and tumor were also collected. Each organ was weighed and the tissue radioactivity was measured with an automated gamma counter (1282 Compugamma CS, Pharmacia/ LKBNuclear, Inc., Mt. Waverly, Vic. Australia). The percentage of injected dose per gram of tissue (%ID/g) was calculated by comparison with samples of a standard dilution of the initial dose. All measurements were corrected for radioactive decay. Data are expressed as mean ± standard deviation (SD).

[3] = 8 h+Block (co-injected 200 nmole of 1)
[4] = 24 h+Block (co-injected 200 nmole of 1)
[5] = one phase exponential decay fit

CC(CCC(=O)NC(CC(=O)NC(CC(=O)NC(CCCCn1cc(CCCC(=O)Nc2nnc(S(N)(=O)=O)s2)nn1)C(=O)NCCOCCOCCNC(=S)Nc1ccc(CC2CN(CC(=O)O)CCN(CC(=O)[O-])CCN2CC(=O)[O-])cc1)C(=O)O)C(=O)O)(c1ccc(O)cc1)c1ccc(O)cc1.[64Cu+2] (stereo not shown) [[^64Cu]XYIMSR-06]
Percentage of intact radiotracer in plasma ([1]; 0.5h plasma sample): 86.2% | Percentage of intact radiotracer in plasma ([1]; 1h plasma sample): 98.3% | Percentage of intact radiotracer in plasma ([1]; 2h plasma sample): 100% | In vivo stability by blood metabolites (radio thin layer chromatography) ([1]; post-injection): stable up to 2 h post-injection | Bladder uptake ([2]; 1 h): 11.12±6.33 %ID/g | Blood uptake ([2]; 1 h): 0.66±0.05 %ID/g | Brain uptake ([2]; 1 h): 1.46±2.23 %ID/g | Fat uptake ([2]; 1 h): 0.80±0.17 %ID/g | Heart uptake ([2]; 1 h): 3.41±0.79 %ID/g | Kidney (kid) uptake ([2]; 1 h): 33.65±3.91 %ID/g | Liver uptake ([2]; 1 h): 3.25±0.97 %ID/g | Lung uptake ([2]; 1 h): 25.52±3.35 %ID/g | Muscle (mm) uptake ([2]; 1 h): 1.28±0.27 %ID/g | Pancreas uptake ([2]; 1 h): 2.94±0.24 %ID/g | Sm. intestine uptake ([2]; 1 h): 7.35±0.78 %ID/g | Spleen uptake ([2]; 1 h): 0.36±0.08 %ID/g | Stomach uptake ([2]; 1 h): 14.80±2.27 %ID/g | Tumor uptake ([2]; 1 h): 14.5 %ID/g and 14.47±2.69 %ID/g | Tumor/kid (kidney) ratio ([2]; 1 h): 0.4±0.1 | Tumor/mm (muscle) ratio ([2]; 1 h): 10.8±3.7 | Bladder uptake ([2]; 4 h): 17.05±8.86 %ID/g | Blood uptake ([2]; 4 h): 0.33±0.06 %ID/g | Brain uptake ([2]; 4 h): 0.29±0.06 %ID/g | Fat uptake ([2]; 4 h): 0.52±0.29 %ID/g | Heart uptake ([2]; 4 h): 1.78±0.33 %ID/g | Kidney (kid) uptake ([2]; 4 h): 19.99±2.88 %ID/g | Liver uptake ([2]; 4 h): 2.18±0.57 %ID/g | Lung uptake ([2]; 4 h): 12.03±1.61 %ID/g | Muscle (mm) uptake ([2]; 4 h): 0.70±0.18 %ID/g | Pancreas uptake ([2]; 4 h): 1.36±0.19 %ID/g | Sm. intestine uptake ([2]; 4 h): 4.15±0.69 %ID/g | Spleen uptake ([2]; 4 h): 0.24±0.04 %ID/g | Stomach uptake ([2]; 4 h): 8.19±0.97 %ID/g | Tumor uptake ([2]; 4 h): 19.3 %ID/g and 19.31±4.51 %ID/g | Tumor/Blood ratio ([2]; 4 h): 57.7±9.3 | Tumor/kid (kidney) ratio ([2]; 4 h): 1.0±0.1 | Tumor/mm (muscle) ratio ([2]; 4 h): 29.4±9.9 | Bladder uptake ([2]; 8 h): 7.43±7.72 %ID/g | Blood uptake ([2]; 8 h): 0.13±0.02 %ID/g | Brain uptake ([2]; 8 h): 0.24±0.06 %ID/g | Fat uptake ([2]; 8 h): 0.28±0.27 %ID/g | Heart uptake ([2]; 8 h): 0.65±0.10 %ID/g | Kidney (kid) uptake ([2]; 8 h): 8.14±1.15 %ID/g | Liver uptake ([2]; 8 h): 0.99±0.22 %ID/g | Lung uptake ([2]; 8 h): 4.64±0.58 %ID/g | Muscle (mm) uptake ([2]; 8 h): 0.21±0.05 %ID/g | Pancreas uptake ([2]; 8 h): 0.47±0.21 %ID/g | Sm. intestine uptake ([2]; 8 h): 1.98±0.14 %ID/g | Spleen uptake ([2]; 8 h): 0.18±0.02 %ID/g | Stomach uptake ([2]; 8 h): 4.02±0.53 %ID/g | Tumor uptake ([2]; 8 h): 16.74±1.58 %ID/g | Tumor/Blood ratio ([2]; 8 h): 129.6±18.8 | Tumor/kid (kidney) ratio ([2]; 8 h): 2.1 and 2.1 ± 0.3 and 2.1±0.26 | Tumor/mm (muscle) ratio ([2]; 8 h): 84.3±21.0 | Bladder uptake [2, 3]: 1.45±1.53 %ID/g | Blood uptake [2, 3]: 0.08±0.01 %ID/g | Brain uptake [2, 3]: 0.04±0.01 %ID/g | Fat uptake [2, 3]: 0.05±0.01 %ID/g | Heart uptake [2, 3]: 0.16±0.03 %ID/g | Kidney (kid) uptake [2, 3]: 1.82±0.39 %ID/g | Liver uptake [2, 3]: 0.55±0.08 %ID/g | Lung uptake [2, 3]: 0.77±0.14 %ID/g | Muscle (mm) uptake [2, 3]: 0.05±0.02 %ID/g | Pancreas uptake [2, 3]: 0.14±0.03 %ID/g | Sm. intestine uptake [2, 3]: 0.38±0.06 %ID/g | Spleen uptake [2, 3]: 0.14±0.02 %ID/g | Stomach uptake [2, 3]: 0.69±0.18 %ID/g | Tumor uptake [2, 3]: 2.39±0.24 %ID/g | Tumor/Blood ratio [2, 3]: 32.0±3.8 | Tumor/kid (kidney) ratio [2, 3]: 1.3±10.2 | Tumor/mm (muscle) ratio [2, 3]: 53.0±12.6 | Effect of co-injection of 200 nmole of 1 on tumor uptake (binding specificity) ([2]; 8 h and 24 h): blocked tumor uptake | All other tumor-to-organ ratios tested (other than kidney and lung) ([2]; 24 h): ≥ 10 | Bladder uptake ([2]; 24 h): 0.34±0.09 %ID/g | Brain uptake ([2]; 24 h): 0.13±0.02 %ID/g | Fat uptake ([2]; 24 h): 0.03±0.01 %ID/g | Heart uptake ([2]; 24 h): 0.12±0.03 %ID/g | Kidney (kid) uptake ([2]; 24 h): 0.90±0.12 %ID/g | Liver uptake ([2]; 24 h): 0.38±0.03 %ID/g | Lung uptake ([2]; 24 h): 1.27±0.38 %ID/g | Muscle (mm) uptake ([2]; 24 h): 0.02±0.01 %ID/g | Pancreas uptake ([2]; 24 h): 0.21±0.29 %ID/g | Sm. intestine uptake ([2]; 24 h): 0.47±0.03 %ID/g | Spleen uptake ([2]; 24 h): 0.09±0.01 %ID/g | Stomach uptake ([2]; 24 h): 0.65±0.04 %ID/g | Tumor uptake ([2]; 24 h): 6.2 %ID/g and 6.23±1.41 %ID/g | Tumor-to-lung ratio ([2]; 24 h): 4.9 | Tumor/Blood ratio ([2]; 24 h): 142.6±115.8 | Tumor/kid (kidney) ratio ([2]; 24 h): 7.1 and 7.1±2.5 | Bladder uptake [2, 4]: 0.45±0.50 %ID/g | Blood uptake [2, 4]: 0.01±0.08 %ID/g | Brain uptake [2, 4]: 0.02±0.01 %ID/g | Fat uptake [2, 4]: 0.01±0.01 %ID/g | Heart uptake [2, 4]: 0.08±0.01 %ID/g | Kidney (kid) uptake [2, 4]: 0.48±0.09 %ID/g | Liver uptake [2, 4]: 0.42±0.04 %ID/g | Lung uptake [2, 4]: 0.29±0.05 %ID/g | Muscle (mm) uptake [2, 4]: 0.04±0.06 %ID/g | Pancreas uptake [2, 4]: 0.07±0.02 %ID/g | Sm. intestine uptake [2, 4]: 0.19±0.05 %ID/g | Spleen uptake [2, 4]: 0.11±0.04 %ID/g | Stomach uptake [2, 4]: 0.29±0.04 %ID/g | Tumor uptake [2, 4]: 1.20±0.47 %ID/g | Tumor/Blood ratio [2, 4]: 27.1±26.7 | Tumor/kid (kidney) ratio [2, 4]: 2.4±0.4 | Tumor/mm (muscle) ratio [2, 4]: 49.0±28.7 | Calculated half-life, Bladder [2, 5]: 116.2 h | Calculated half-life, Blood [2, 5]: 2.153 h | Calculated half-life, Brain [2, 5]: 0.860 h | Calculated half-life, Fat [2, 5]: 4.666 h | Calculated half-life, Heart [2, 5]: 2.293 h | Calculated half-life, Kidney [2, 5]: 3.591 h | Calculated half-life, Liver [2, 5]: 3.375 h | Calculated half-life, Lung [2, 5]: 2.542 h | Calculated half-life, Muscle [2, 5]: 3.035 h | Calculated half-life, Pancreas [2, 5]: 2.330 h | Calculated half-life, SK-RC-52 tumor [2, 5]: 996.1 h | Calculated half-life, Small intestine [2, 5]: 3.322 h | Calculated half-life, Spleen [2, 5]: 4.008 h | Calculated half-life, Stomach [2, 5]: 3.397 h | Radiotracer uptake within liver ([2]; within 24 h): no significant radiotracer uptake within liver
